Experimental data as given in patent publication US7674909B2, “Tetrahydroquinoline derivatives and their use as FSH receptor modulators” (N.V. Organon, priority 2002, dated 2010).

Biological target: T1, human FSH receptor (Homo sapiens, UniProt P23945)
T1 construct: expressed in transfected cells; host or cells: Chinese Hamster Ovary (CHO) cells, stably transfected, cotransfected with a CRE-luciferase reporter
T1 sequence (P23945 18-695): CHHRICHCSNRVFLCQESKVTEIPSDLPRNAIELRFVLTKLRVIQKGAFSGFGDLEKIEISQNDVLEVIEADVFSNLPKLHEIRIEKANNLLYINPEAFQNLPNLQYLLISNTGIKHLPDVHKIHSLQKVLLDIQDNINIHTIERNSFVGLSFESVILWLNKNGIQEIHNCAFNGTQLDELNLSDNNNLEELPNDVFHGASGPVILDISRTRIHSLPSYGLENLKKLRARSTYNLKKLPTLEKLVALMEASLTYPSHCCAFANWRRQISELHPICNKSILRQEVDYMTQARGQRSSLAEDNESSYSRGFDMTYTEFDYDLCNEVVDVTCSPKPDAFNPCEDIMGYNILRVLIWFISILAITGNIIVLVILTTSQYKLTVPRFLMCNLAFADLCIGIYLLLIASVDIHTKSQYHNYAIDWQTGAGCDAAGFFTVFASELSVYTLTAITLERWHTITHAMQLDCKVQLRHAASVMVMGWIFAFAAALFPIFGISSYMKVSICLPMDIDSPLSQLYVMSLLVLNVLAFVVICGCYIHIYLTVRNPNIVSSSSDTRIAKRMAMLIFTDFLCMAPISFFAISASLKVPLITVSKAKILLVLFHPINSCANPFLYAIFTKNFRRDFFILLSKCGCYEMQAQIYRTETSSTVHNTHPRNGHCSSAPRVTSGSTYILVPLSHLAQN
Experiment: CHO-FSH in vitro bioactivity (CRE-luciferase reporter, agonistic or antagonistic set-up)
Type: cell-based
Details: CHO cells stably transfected with human FSH receptor and CRE/luciferase reporter; in either an agonistic or an antagonistic (rec-hFSH 10 mU/ml) assay set-up or both / in at least one of the assays; read-out: EC50 (IC50)
Experimental: FSH activity of compounds were tested in Chinese Hamster Ovary (CHO) cells stably transfected with the human FSH receptor and cotransfected with a cAMP responsive element (CRE)/promotor directing the expression of a firefly luciferase reporter gene. Binding of ligand to the Gs-coupled FSH receptor will result in an increase of cAMP, which in turn will induce an increased transactivation of the luciferase reporter construct. To test antagonistic properties recombinant FSH in a concentration that induces approximately 80% of the maximal stimulation of cAMP accumulation in the absence of test compound was added (rec-hFSH; 10 mU/ml). The luciferase signal was quantified using a luminescence counter. For test compounds, EC50 values (concentration of test compound causing half-maximal (50%) stimulation or reduction) were calculated. For that purpose the software program GraphPad PRISM, version 3.0 (GraphPad software Inc., San Diego) was used.

EC50, < 100 nM:
CC(=O)N1c2ccc(NC(=O)c3ccc(C(C)(C)C)cc3)cc2C(C)(c2ccc(OCCN3CCOCC3)cc2)CC1(C)C (stereo not drawn) [Example 37, N-{1-Acetal-2,2,4-trimethyl-4-[4-(2-morpholin-4-ethoxy)-phenyl]-1,2,3,4-tetrahydro-quinolin-6-yl}-4-tert-butyl-benzamide]
CC(=O)N1c2ccc(NC(=O)c3ccc(N(C)C)cc3)cc2C(C)(c2ccc(OCCN3CCOCC3)cc2)CC1(C)C (stereo not drawn) [Example 41, N-{1-Acetyl-2,2,4-trimethyl-4-[4-(2-morpholin-4-yl-ethoxy)-phenyl]-1,2,3,4-tetrahydro-quinolin-6-yl}-4-dimethylamino-benzamide]
CC(=O)N1c2ccc(NC(=O)c3ccc(-c4ccccc4)cc3)cc2C(C)(c2ccc(OCc3ccncc3)cc2)CC1(C)C (stereo not drawn) [Example 7, Biphenyl-4-carboxylic acid {1-acetyl-2,2,4-trimethyl-4-[4-(pyridin-4-ylmethoxy)-phenyl]-1,2,3,4-tetrahydro-quinolin-6-yl}-amide]
CC(=O)N1c2ccc(NC(=O)c3cccc(C(F)(F)F)c3)cc2C(C)(c2ccc(OCCN3CCOCC3)cc2)CC1(C)C (stereo not drawn) [Example 42, N-{1-Acetyl-2,2,4-trimethyl-4-[4-(2-morpholin-4-yl-ethoxy)-phenyl]-1,2,3,4-tetrahydro-quinolin-6-yl}-3-trifluoromethyl-benzamide]
CC(=O)N1c2ccc(NC(=O)c3ccc(Br)cc3)cc2C(C)(c2ccc(OCCN3CCOCC3)cc2)CC1(C)C (stereo not drawn) [Example 39, N-{1-Acetyl-2,2,4-trimethyl-4-[4-(2-morpholin-4-yl-ethoxy)-phenyl]-1,2,3,4-tetrahydro-quinolin-6-yl}-4-bromo-benzamide]
CC(=O)N1c2ccc(NC(=O)c3ccccc3)cc2C(C)(c2ccc(OCCN3CCOCC3)cc2)CC1(C)C (stereo not drawn) [Example 36, N-{1-Acetyl-2,2,4-trimethyl-4-[4-(2-morpholin-4-yl-ethoxy)-phenyl]-1,2,3,4-tetrahydro-quinolin-6-yl}-benzamide]
CC(=O)N1c2ccc(NC(=O)c3ccc(-c4ccccc4)cc3)cc2C(C)(c2ccc(OCC(=O)NCc3ccco3)cc2)CC1(C)C (stereo not drawn) [Example 16]
CC(=O)N1c2ccc(NC(=O)c3ccc(-c4ccccc4)cc3)cc2C(C)(c2ccc(OCCCN3CCOCC3)cc2)CC1(C)C (stereo not drawn) [Example 3, Biphenyl-4-carboxylic acid {1-acetyl-2,2,4-trimethyl-4-[4-(3-morpholin-4-yl-propoxy)-phenyl]-1,2,3,4-tetrahydro-quinolin-6-yl}-amide]
CC(=O)N1c2ccc(NC(=O)c3ccc(-c4ccccc4)cc3)cc2C(C)(c2ccc(OCc3ccccn3)cc2)CC1(C)C (stereo not drawn) [Example 4, Biphenyl-4-carboxylic acid {1-acetyl-2,2,4-trimethyl-4-[4-(pyridin-2-ylmethoxy)-phenyl]-1,2,3,4-tetrahydro-quinolin-6-yl}-amide]
